In patent publication US6974568B2, “Treatment for cough” (The Regents of the University of California, priority 2000, dated 2005):

Key:
[1] = test system: guinea pig lung parenchyma strips; experiment: Isolated lung strips, muscle contraction; settings: for effect on anandamide bronchoconstriction in vitro: SR141716A 1 μM, lung strips
Protocol: Guinea pig parenchimal strips were prepared essentially as described in Samhoun, M. N., et al. (1984) Prostaglandins, 27, 711-724. The strips were placed in 10-ml organ baths containing Krebs' buffer (in mM: NaCl, 118; KCl, 4; K2HPO4, 1.2; MgSO4, 1.2; CaCl2, 2.5; NaHCO3, 25.0; glucose, 11.2; supplemented with […] atropine sulfate and […] indomethacin) at 37° C. and aerated with an oxygen/carbon dioxide mixture (95/5%). Muscle contractions were recorded with an isometric force transducer (U. Basile) and expressed in dyne per mg of fresh tissue.

[2] = test system: capsaicin-evoked cough; settings: guinea pig, in vivo
[3] = test system: capsaicin-evoked bronchospasm; experiment: Capsaicin-evoked bronchospasm in anesthetized guinea pigs; assay type: in vivo, guinea pig; settings: for reversal of anandamide's inhibition of capsaicin-evoked bronchospasm: antagonist given with anandamide, SR141716A 0.5 mg per kg i.v., SR144528 0.3 mg per kg i.v. (maximal dose); for intrinsic effect on capsaicin-evoked bronchoconstriction: capsaicin via tracheal catheter or i.v., antagonist i.v.; for effect on capsaicin-evoked bronchospasm: administered systemically before capsaicin
[4] = test system: bronchial smooth muscle; experiment: Direct bronchomotor action in anesthetized animals with intact vagus; assay type: in vivo, guinea pig
[5] = test system: bronchial smooth muscle; experiment: Bronchoconstriction in vagotomized, atropine-treated guinea pigs; assay type: in vivo, guinea pig; settings: for effect on anandamide bronchoconstriction in vivo: antagonist before anandamide; for bronchial muscle constriction, % of maximal bronchospasm: tracheal administration, n=6
[6] = test system: capsaicin-evoked bronchospasm; experiment: Capsaicin-evoked bronchospasm in anesthetized rats; assay type: in vivo, rat; settings: n=3
[7] = test system: bronchial smooth muscle; experiment: Bronchoconstriction in vagotomized, atropine-treated rats; assay type: in vivo, rat; settings: after vagotomy and atropine, n=3
[8] = capsazepine 0.2 mg per kg, i.v.

## CCCCC/C=C\C/C=C\C/C=C\C/C=C\CCCC(=O)Nc1ccc(O)cc1 [N-(4-hydroxyphenyl)-arachidonamide]
[1]; anandamide 50 μM plus N-(4-hydroxyphenyl)-arachidonamide 28 μM, P<0.05, n=6
  anandamide-evoked contraction of isolated lung strips: 0.638±0.06 dyne/mg of tissue

## Cc1c(C(=O)NN2CCCCC2)nn(-c2ccc(Cl)cc2Cl)c1-c1ccc(Cl)cc1 [SR141716A]
[2]; iv
  effect of CB1 receptor blockade on anandamide's reduction of capsaicin-evoked cough: abrogated
  intrinsic effect on capsaicin-evoked coughing: significantly enhanced
[3]
  reversal of anandamide's inhibition of capsaicin-evoked bronchospasm: completely reversed
  intrinsic effect on capsaicin-evoked bronchoconstriction: significantly enhanced
[3]; capsaicin i.v. after SR141716A 0.5 mg per kg i.v., P<0.05, n=3
  bronchospasm, % of maximal bronchospasm: 92.3±3.4%
[1]
  effect on anandamide bronchoconstriction in vitro: blocked
[4]; antagonist alone, without capsaicin, guinea pigs
  bronchomotor consequences per se: no bronchomotor consequences per se
[5]
  effect on anandamide bronchoconstriction in vivo: blocked

## SR144528
[2]; iv
  intrinsic effect on capsaicin-evoked coughing: had no such effects
[3]
  reversal of anandamide's inhibition of capsaicin-evoked bronchospasm: only slightly reduced
  intrinsic effect on capsaicin-evoked bronchoconstriction: had no such effects
[1]
  effect on anandamide bronchoconstriction in vitro: had no such effect
[5]
  effect on anandamide bronchoconstriction in vivo: had no such effect

## CCCCCCCCCCCCCCCC(=O)NCCO [Palmitylethanolamide]
[3]
  effect on capsaicin-evoked bronchospasm: ineffective

## Oc1cc2c(cc1O)CN(C(=S)NCCc1ccc(Cl)cc1)CCC2 [capsazepine]
[3]; [8]
  effect on the capsaicin response (bronchospasm): completely prevented
[5]; [8]
  effect on anandamide-evoked bronchospasm: had no effect

## COc1cc(CNC(=O)CCCC/C=C/C(C)C)ccc1O [capsaicin]
[3]; capsaicin alone, i.v., n=3
  bronchospasm, % of maximal bronchospasm: 55.3±8.2%
[6]; capsaicin 30 mg per animal, intratracheal
  bronchospasm, % of maximal bronchospasm: 55±12%
[6]; capsaicin 100 mg per animal, intratracheal
  bronchospasm, % of maximal bronchospasm: 81±19%
[6]; capsaicin intratracheal alone (anandamide experiment)
  bronchospasm, % of maximal bronchospasm: 37.2±4.2%
[6]; capsaicin, intratracheal, mean±s.e.m.
  bronchospasm, % of maximal bronchospasm: 41±6%

## CCCCCCC(C)(C)c1cc(O)c2c(c1)OC(C)(C)[C@@H]1CC=C(CO)C[C@@H]21 [HU210]
[5]; 0.1 mg per animal
  bronchial muscle constriction, % of maximal bronchospasm: 10.0±0.6%
[5]; 1 mg per animal
  bronchial muscle constriction, % of maximal bronchospasm: 30±1.2%
[5]; 10 mg per animal
  bronchial muscle constriction, % of maximal bronchospasm: 60±2.2%
[5]; 30 mg per animal
  bronchial muscle constriction, % of maximal bronchospasm: 100%

## CCCCC/C=C\C/C=C\C/C=C\C/C=C\CCCC(=O)NCCO [anandamide, arachidonylethanolamide]
[2]
  visual signs of cannabinoid intoxication: not accompanied by any visual signs of cannabinoid intoxication
[7]; 1 mg per kg i.v.
  bronchoconstriction, % of maximal bronchospasm: 0±0%
[7]; 3 mg per kg i.v.
  bronchoconstriction, % of maximal bronchospasm: 12±1.7%
[7]; 5 mg per kg i.v.
  bronchoconstriction, % of maximal bronchospasm: 18.3±1.2%
[3]
  effect on capsaicin-evoked bronchospasm: abrogated
[1]; anandamide 50 μM alone, n=6
  contraction of isolated lung strips: 0.336±0.07 dyne/mg of tissue
[6]; capsaicin intratracheal after anandamide 1 mg per kg i.v.
  bronchospasm, % of maximal bronchospasm: 14±7%
[4]; 5 mg per kg (highest dose tested), mean±s.e.m., n=5
  bronchoconstriction, % of maximal: 11.8±5.9%
[4]; doses below the highest dose tested (5 mg per kg), species not given
  direct bronchomotor action: no direct bronchomotor action
[5]; systemic application, guinea pigs
  bronchomotor effect after vagotomy and atropine: dose-dependent bronchoconstriction
